This note sets out measurements from US9670204B2, “Compounds and pharmaceutical compositions thereof for the treatment of inflammatory disorders” (Galapagos NV, priority 2013, dated 2017).

Test [1] deals with T1, hENPP2 (UniProtKB/SwissProt Q13822) (Homo sapiens (Human), UniProt Q13822). The test can be described thus: hENPP2 biochemical assay, LPC as substrate. The following applies: LPC (palmitoyl 16:0) as substrate. A digest of the protocol:
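Human ENPP2 in 50 mM Tris-HCl pH 8.5, 500 mM NaCl, 5 mM KCl, 10 mM CaCl2, 0.1% fatty-acid-free BSA, reacted 30 min at 37 °C with LPC 16:0 (150 µM solution added 1:1). Released choline measured via choline oxidase/peroxidase/TOOS/4-aminoantipyrine quinoneimine dye at 555 nm; IC50 reported.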

Test [2] addresses T1, hENPP2. The test can be described thus: fluorescent hENPP2 biochemical assay, FS-3 as substrate. The following applies: read-out: FS3-IC50. As to the method: Compound IC50 values are determined in a fluorescent hENPP2 (UniProtKB/SwissProt Sequence ref Q13822) biochemical assay using the fluorogenic autotaxin substrate FS-3 as substrate. FS-3 is a doubly labeled analog of LPC wherein the fluorophore is quenched through intramolecular energy transfer. Without hENPP2, the emission of the probe is quenched. If the substrate is hydrolyzed by hENPP2, the emission of the probe is not quenched anymore resulting in a fluorescence increase.
The enzyme is diluted in 50 mM Tris-HCl pH 8.0, 250 mM NaCl, 5 mM KCl, 1 mM MgCl2, 1 mM CaCl2, 0.1% fatty acid free BSA in a total volume of 20 μL. Enzyme mixture is added to compounds and the resulting mixture is incubated for 30 min at room temperature under shaking. The reaction is started by the addition of 20 μL of 0.75 μM FS-3 diluted in the same buffer as described above and the mixture is incubated at 30° C. for 30 min. Fluorescence is read on the Envision (Excitation 485 nm, emission 520 nm).

`CCc1nc2ccc(N3CCC(O)CC3)cn2c1N(C)c1nc(-c2ccc(F)cc2)cs1` [Compound 211, 1-(2-ethyl-3-((4-(4-fluorophenyl)thiazol-2-yl)(methyl)amino)imidazo[1,2-a]pyridin-6-yl)piperidin-4-ol]: the IC50 (commonly the concentration needed to halve the response being measured) against hENPP2 [1] is more than 1000 nM; on hENPP2 [2], 0.01 to 100 nM.

Regarding `CCc1nc2ccc(N3CCN(C(=O)C4CC4)CC3)cn2c1N(C)c1nc(-c2ccc(F)cc2)cs1` [Compound 227, Cyclopropyl-[4-(2-ethyl-3-{[4-(4-fluoro-phenyl)-thiazol-2-yl]-methyl-amino}-imidazo[1,2-a]pyridin-6-yl)-piperazin-1-yl]-methanone], the IC50 against hENPP2 [1] was more than 1000 nM; on hENPP2 [2], 0.01 to 100 nM.

With `CCc1nc2ccc(N3CCN(S(C)(=O)=O)CC3=O)cn2c1N(C)c1nc(-c2ccc(F)cc2)cs1` [Compound 65, 1-(2-ethyl-3-((4-(4-fluorophenyl)thiazol-2-yl)(methyl)amino)imidazo[1,2-a]pyridin-6-yl)-4-(methylsulfonyl) piperazin-2-one], the IC50 is more than 1000 nM against hENPP2 [1] and 0.01 to 100 nM on hENPP2 [2].

As to `CCc1nc2ccc(C3CCN(C4CN(C(C)=O)C4)CC3)cn2c1N(C)c1nc(-c2ccc(F)cc2)cs1` [Compound 134, 1-(3-(4-(2-ethyl-3-((4-(4-fluorophenyl)thiazol-2-yl)(methyl)amino)imidazo[1,2-a]pyridin-6-yl)piperidin-1-yl)azetidin-1-yl)ethanone], the IC50 was 500 to 1000 nM against hENPP2 [1] and 0.01 to 100 nM at hENPP2 [2].

Consider `CCc1nc2ccc(C3CCN(S(C)(=O)=O)CC3)cn2c1N(C)c1nc(-c2ccc(F)cc2NC(C)=O)cs1` [Compound 106, N-(2-(2-((2-ethyl-6-(1-(methylsulfonyl)piperidin-4-yl)imidazo[1,2-a]pyridin-3-yl)(methyl)amino)thiazol-4-yl)-5-fluorophenyl)acetamide], for which the IC50 is more than 1000 nM against hENPP2 [1] and 0.01 to 100 nM at hENPP2 [2].

On to `CCc1nc2ccc(C3=CCS(=O)(=O)CC3)cn2c1N(C)c1nc(-c2ccc(Cl)cc2)cs1` [Compound 76, 4-(2-ethyl-3-((4-(4-chlorophenyl)thiazol-2-yl)(methyl)amino)imidazo[1,2-a]pyridin-6-yl)-3,6-dihydro-2H-thiopyran 1,1-dioxide], for which the values for the IC50 on hENPP2 [1] and on hENPP2 [2] were more than 1000 nM and 0.01 to 100 nM, respectively.

Regarding `CCc1nc2ccc(N3CCN(C(=O)OC(C)(C)C)CC3)cn2c1N(C)c1nc(-c2ccc(F)cc2)cs1` [Compound 23, tert-butyl 4-(2-ethyl-3-((4-(4-fluorophenyl)thiazol-2-yl)(methyl)amino)imidazo[1,2-a]pyridin-6-yl)piperazine-1-carboxylate], the IC50 is more than 1000 nM against hENPP2 [1] and 0.01 to 100 nM at hENPP2 [2].

Take `CCc1nc2ccc(C3CCN(S(C)(=O)=O)CC3O)cn2c1N(C)c1nc(-c2ccc(F)cc2)cs1` (centres unmarked) [Compound 79, 4-(2-ethyl-3-((4-(4-fluorophenyl)thiazol-2-yl)(methyl)amino)imidazo[1,2-a]pyridin-6-yl)-1-(methylsulfonyl) piperidin-3-ol]: the IC50 on hENPP2 [1] is more than 1000 nM; on hENPP2 [2], 0.01 to 100 nM.

For the molecule `CCc1nc2ccc(N3CCN(C(=O)CCCO)CC3)cn2c1N(C)c1nc(-c2ccc(F)cc2)cs1` [Compound 52, 1-(4-(2-ethyl-3-((4-(4-fluorophenyl)thiazol-2-yl)(methyl)amino)imidazo[1,2-a]pyridin-6-yl)piperazin-1-yl)-4-hydroxybutan-1-one], the IC50 was more than 1000 nM on hENPP2 [1] and 0.01 to 100 nM at hENPP2 [2].

Consider `CCOC(=O)CN1CC=C(c2ccc3nc(CC)c(N(C)c4nc(-c5ccc(F)cc5)cs4)n3c2)CC1` [Compound 108, ethyl 2-(4-(2-ethyl-3-((4-(4-fluorophenyl)thiazol-2-yl)(methyl)amino)imidazo[1,2-a]pyridin-6-yl)-5,6-dihydropyridin-1(2H)-yl)acetate], for which the IC50 against hENPP2 [1] was more than 1000 nM; at hENPP2 [2] it was 0.01 to 100 nM.
